Reference: US5734015A, “Family of linear antimicrobial peptides from hagfish intestine” (Magainin Pharmaceuticals Inc., priority 1996, dated 1998)
No end group written: not given here.

Columns and labels:
Assay in all cases: Antibiotic activity, MIC by standard methodology
Type in all cases: cell-based
[1] = system: P. aeruginosa
Source text: (§1) Chemical synthesis of the sequence (SEQ ID NO. 4) corresponding to Peptides 1 and 2 (SEQ ID NOS: 1 and 2 respectively) containing native (unmodified) tryptophan was achieved by SPPS, using Fmoc chemistry.

[2] = system: C. albicans
Source text: as §1

[3] = system: S. aureus
Source text: as §1

[4] = system: E. coli
Source text: as §1

Sequence: GFFKKAWRKVKHAGRRVLDTAKGVGRHYVNNWLNRYR [SEQ ID NO. 4]
- minimum inhibitory concentration (MIC) [1]: 8 µg/mL
- minimum inhibitory concentration (MIC) [2]: > 256 µg/mL
- minimum inhibitory concentration (MIC) [3]: 8 µg/mL
- minimum inhibitory concentration (MIC) [4]: 8 µg/mL
